For the assay, the target named is T1, human M2 receptor (Homo sapiens, UniProt P08172).
T1 sequence (P08172 1-466): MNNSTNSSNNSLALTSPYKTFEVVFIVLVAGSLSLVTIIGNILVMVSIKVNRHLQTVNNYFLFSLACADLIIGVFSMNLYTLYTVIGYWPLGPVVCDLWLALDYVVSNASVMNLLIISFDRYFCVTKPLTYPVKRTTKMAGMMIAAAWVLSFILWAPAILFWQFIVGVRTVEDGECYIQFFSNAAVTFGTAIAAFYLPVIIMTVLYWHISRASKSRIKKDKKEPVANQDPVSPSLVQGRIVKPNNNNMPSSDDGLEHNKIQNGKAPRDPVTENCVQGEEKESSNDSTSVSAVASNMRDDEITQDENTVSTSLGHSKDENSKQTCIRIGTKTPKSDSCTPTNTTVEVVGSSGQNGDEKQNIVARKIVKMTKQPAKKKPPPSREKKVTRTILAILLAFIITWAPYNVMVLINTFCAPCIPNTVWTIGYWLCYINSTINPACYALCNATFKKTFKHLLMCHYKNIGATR
The following applies: Receptor activity EC50, M2-GIRK1/4 activation test, acetylcholine at EC20; allosteric potency; in some cases mean values from two or more determinations.
As a reminder, the EC50 is the concentration at which the effect is half-maximal. A low value points to a more potent agent. `CC(C)C(NC(=O)c1cn(-c2ccc(F)cc2F)c2nc(N(C)CCF)ccc2c1=O)C(F)(F)F` (stereo not shown) [Example 108, 1-(2,4-Difluorophenyl)-7-[(2-fluoroethyl)(methyl)amino]-4-oxo-N-[1,1,1-trifluoro-3-methylbutan-2-yl]-1,4-dihydro-1,8-naphthyridine-3-carboxamide] registered a half-maximal effective concentration (EC50) of 0.024 µM.

The compound `CN(CCF)c1ccc2c(=O)c(C(=O)NC3(C(F)(F)F)CC3)cn(-c3ccc(F)cc3F)c2n1` [Example 109, 1-(2,4-Difluorophenyl)-7-[(2-fluoroethyl)(methyl)amino]-4-oxo-N-[1-(trifluoromethyl)cyclopropyl]-1,4-dihydro-1,8-naphthyridine-3-carboxamide] returned an EC50 of 0.187 µM.

`CN(CCF)c1ccc2c(=O)c(C(=O)NC34CCC(F)(CC3)CC4)cn(-c3ccc(F)cc3F)c2n1` [Example 110, 1-(2,4-Difluorophenyl)-N-(4-fluorobicyclo[2.2.2]oct-1-yl)-7-[(2-fluoroethyl)(methyl)amino]-4-oxo-1,4-dihydro-1,8-naphthyridine-3-carboxamide] came in with a concentration for a half-maximal effect (EC50) of 0.062 µM.

For `CN(CC(F)F)c1ccc2c(=O)c(C(=O)NC34CC5CC(CC(C5)C3)C4)cn(-c3ccc(F)cc3F)c2n1` [Example 112, 7-[(2,2-Difluoroethyl)(methyl)amino]-1-(2,4-difluorophenyl)-4-oxo-N-(tricyclo[3.3.1.1^3,7]dec-1-yl)-1,4-dihydro-1,8-naphthyridine-3-carboxamide], the response was half-maximal at 0.029 µM (EC50).

Turning to `CN(CC(F)F)c1ccc2c(=O)c(C(=O)NC(C(F)(F)F)C(F)(F)F)cn(-c3ccc(F)cc3F)c2n1` [Example 115, 7-[(2,2-Difluoroethyl)(methyl)amino]-1-(2,4-difluorophenyl)-N-[1,1,1,3,3,3-hexafluoropropan-2-yl)-4-oxo-1,4-dihydro-1,8-naphthyridine-3-carboxamide], the half-maximal effective concentration (EC50) was found to be 0.073 µM.

For `O=C(NC12CC3CC(CC(C3)C1)C2)c1cn(-c2ccc(F)cc2F)c2nc(N3CCC(O)(CO)CC3)ccc2c1=O` [Example 116, 1-(2,4-Difluorophenyl)-7-[4-hydroxy-4-(hydroxymethyl)piperidin-1-yl]-4-oxo-N-(tricyclo[3.3.1.1^3,7]dec-1-yl)-1,4-dihydro-1,8-naphthyridine-3-carboxamide], the EC50 worked out at 0.059 µM.

`O=C(NC12CC3CC(CC(C3)C1)C2)c1cn(-c2ccc(F)cc2F)c2nc(N3CCOC[C@H]3CO)ccc2c1=O` [Example 117, 1-(2,4-Difluorophenyl)-7-[(3R)-3-(hydroxymethyl)morpholin-4-yl]-4-oxo-N-(tricyclo[3.3.1.1^3,7]dec-1-yl)-1,4-dihydro-1,8-naphthyridine-3-carboxamide] displayed an EC50 of 0.089 µM.

Consider `O=C(NC12CC3CC(CC(C3)C1)C2)c1cn(-c2ccc(F)cc2F)c2nc(NCC(F)F)ccc2c1=O` [Example 120, 7-[(2,2-Difluoroethyl)amino]-1-(2,4-difluorophenyl)-4-oxo-N-(tricyclo[3.3.1.1^3,7]dec-1-yl)-1,4-dihydro-1,8-naphthyridine-3-carboxamide], for which a half-maximal effect (EC50) was put at 0.062 µM.

As for `CCCC(NC(=O)c1cn(-c2ccc(F)cc2F)c2nc(NCC(F)F)ccc2c1=O)C(F)(F)F` (stereo not shown) [Example 124, 7-[(2,2-Difluoroethyl)amino]-1-(2,4-difluorophenyl)-4-oxo-N-[1,1,1-trifluoropentan-2-yl]-1,4-dihydro-1,8-naphthyridine-3-carboxamide], the 50% effective concentration (EC50) turned out to be 0.155 µM.

As to `O=C(NC(C(F)(F)F)C(F)(F)F)c1cn(-c2ccc(F)cc2F)c2nc(NCC(F)F)ccc2c1=O` [Example 126, 7-[(2,2-Difluoroethyl)amino]-1-(2,4-difluorophenyl)-N-(1,1,1,3,3,3-hexafluoropropan-2-yl)-4-oxo-1,4-dihydro-1,8-naphthyridine-3-carboxamide], the response was half-maximal at 0.18 µM (EC50).

In the case of `O=C(NC12CC3CC(CC(C3)C1)C2)c1cn(-c2ccc(F)cc2F)c2nc(N3CCSC3)ccc2c1=O` [Example 129, 1-(2,4-Difluorophenyl)-4-oxo-7-(1,3-thiazolidin-3-yl)-N-(tricyclo[3.3.1.1^3,7]dec-1-yl)-1,4-dihydro-1,8-naphthyridine-3-carboxamide], the concentration giving a half-maximal response (EC50) stood at 0.045 µM.

`O=C(NC12CC3CC(CC(C3)C1)C2)c1cn(-c2ccc(F)cc2F)c2nc(N3CCS(=O)(=O)C3)ccc2c1=O` [Example 130, 1-(2,4-Difluorophenyl)-7-(1,1-dioxido-1,3-thiazolidin-3-yl)-4-oxo-N-(tricyclo[3.3.1.1^3,7]dec-1-yl)-1,4-dihydro-1,8-naphthyridine-3-carboxamide] yielded an EC50 of 0.113 µM.

Take `O=C(NC12CC3CC(CC(C3)C1)C2)c1cn(-c2ccc(F)cc2F)c2nc(N3CC[S+]([O-])C3)ccc2c1=O` (stereo not shown) [Example 131, 1-(2,4-Difluorophenyl)-7-(1-oxido-1,3-thiazolidin-3-yl)-4-oxo-N-(tricyclo[3.3.1.1^3,7]dec-1-yl)-1,4-dihydro-1,8-naphthyridine-3-carboxamide]: the half-maximal effective concentration (EC50) turned out to be 0.157 µM.

As to `CC(C)C[C@@H](NC(=O)c1cn(-c2ccc(F)cc2F)c2nc(N(C)C)ccc2c1=O)C(F)(F)F` [Example 133, 1-(2,4-Difluorophenyl)-7-(dimethylamino)-4-oxo-N-[(2R)-1,1,1-trifluoro-4-methylpentan-2-yl]-1,4-dihydro-1,8-naphthyridine-3-carboxamide], a half-maximal effect (EC50) was put at 0.019 µM.

In turn, `CC(C)[C@H](NC(=O)c1cn(-c2ccc(F)cc2F)c2nc(N(C)C)ccc2c1=O)C(F)(F)F` [Example 134, 1-(2,4-Difluorophenyl)-7-(dimethylamino)-4-oxo-N-[(2S)-1,1,1-trifluoro-3-methylbutan-2-yl]-1,4-dihydro-1,8-naphthyridine-3-carboxamide] came in with an EC50 of 0.032 µM.

Compound `O=C(NC12CC3CC(CC(C3)C1)C2)c1cn(-c2ccc(F)cc2F)c2nc(N3CCOCC3)ccc2c1=O` [Example 136, 1-(2,4-Difluorophenyl)-7-(morpholin-4-yl)-4-oxo-N-(tricyclo[3.3.1.1^3,7]dec-1-yl)-1,4-dihydro-1,8-naphthyridine-3-carboxamide] yielded an EC50 of 0.024 µM.

As to `CC(C)C[C@H](NC(=O)c1cn(-c2ccc(F)cc2F)c2nc(N(C)C)ccc2c1=O)C(F)(F)F` [Example 137, 1-(2,4-Difluorophenyl)-7-(dimethylamino)-4-oxo-N-[(2S)-1,1,1-trifluoro-4-methylpentan-2-yl]-1,4-dihydro-1,8-naphthyridine-3-carboxamide], the response was half-maximal at 0.016 µM (EC50).

Consider `CN(C)c1ccc2c(=O)c(C(=O)NC(C(F)(F)F)C(F)(F)F)cn(-c3ccc(F)cc3F)c2n1` [Example 149, 1-(2,4-Difluorophenyl)-7-(dimethylamino)-N-(1,1,1,3,3,3-hexafluoropropan-2-yl)-4-oxo-1,4-dihydro-1,8-naphthyridine-3-carboxamide], for which the EC50 stood at 0.085 µM.

Compound `CN(C)c1ccc2c(=O)c(C(=O)NC3(C(F)(F)F)CCCC3)cn(-c3ccc(F)cc3F)c2n1` [Example 151, 1-(2,4-Difluorophenyl)-7-(dimethylamino)-4-oxo-N-[1-(trifluoromethyl)cyclopentyl]-1,4-dihydro-1,8-naphthyridine-3-carboxamide] gave a half-maximal effective concentration (EC50) of 0.023 µM.

In the case of `CN(C)c1ccc2c(=O)c(C(=O)NC34CCC(CC3)CC4)cn(-c3ccc(F)cc3Cl)c2n1` [Example 152, N-(Bicyclo[2.2.2]oct-1-yl)-1-(2-chloro-4-fluorophenyl)-7-(dimethylamino)-4-oxo-1,4-dihydro-1,8-naphthyridine-3-carboxamide], the EC50 was determined as 0.01 µM.

The compound `CN(C)c1ccc2c(=O)c(C(=O)NC34CC5CC(C3)CC(C(F)(F)F)(C5)C4)cn(-c3ccc(F)cc3Cl)c2n1` [Example 153, 1-(2-Chloro-4-fluorophenyl)-7-(dimethylamino)-4-oxo-N-[3-(trifluoromethyl)tricyclo[3.3.1.1^3,7]dec-1-yl]-1,4-dihydro-1,8-naphthyridine-3-carboxamide] yielded a concentration giving a half-maximal response (EC50) of 0.104 µM.

`CN(C)c1ccc2c(=O)c(C(=O)NC3CC34CCCCC4)cn(-c3ccc(F)cc3Cl)c2n1` (stereo not shown) [Example 154, 1-(2-Chloro-4-fluorophenyl)-7-(dimethylamino)-4-oxo-N-(spiro[2.5]oct-1-yl)-1,4-dihydro-1,8-naphthyridine-3-carboxamide] displayed an EC50 of 0.158 µM.

`CN(C)c1ccc2c(=O)c(C(=O)NC(C)(C)C)cn(-c3ccc(F)cc3Cl)c2n1` [Example 155, N-tert-Butyl-1-(2-chloro-4-fluorophenyl)-7-(dimethylamino)-4-oxo-1,4-dihydro-1,8-naphthyridine-3-carboxamide] registered an EC50 of 0.173 µM.

For `CN(C)c1ccc2c(=O)c(C(=O)NC3(C)CCCCC3)cn(-c3ccc(F)cc3Cl)c2n1` [Example 156, 1-(2-Chloro-4-fluorophenyl)-7-(dimethylamino)-N-(1-methylcyclohexyl)-4-oxo-1,4-dihydro-1,8-naphthyridine-3-carboxamide], it took 0.086 µM to reach a half-maximal effect (EC50).

With `CCC12CC3CC(C1)CC(NC(=O)c1cn(-c4ccc(F)cc4Cl)c4nc(N(C)C)ccc4c1=O)(C3)C2` [Example 157, 1-(2-Chloro-4-fluorophenyl)-7-(dimethylamino)-N-(3-ethyltricyclo[3.3.1.1^3,7]dec-1-yl)-4-oxo-1,4-dihydro-1,8-naphthyridine-3-carboxamide], the response was half-maximal at 0.067 µM (EC50).

The values are drawn from patent publication US20190367516A1 (Bayer Pharma Aktiengesellschaft, priority 2015, published 2019).
